Data published in PMC7534323 (Journal of Enzyme Inhibition and Medicinal Chemistry, 2020).
Where “and” joins values, the source holds several entries; their conditions need not be identical. Identical values can stand only once.

Columns and labels:
[1] = target: T1, human erythrocyte acetylcholinesterase (AChE) (Homo sapiens, UniProt P22303); experiment: biochemical; type: biochemical
T1 construct: 400-fold diluted solution of haemolysed erythrocytes or 200-fold diluted plasma; from tissue; host or cells: haemolysed erythrocytes from blood of healthy human donors
T1 sequence (P22303 other isoform, or with tags, fused parts or gaps): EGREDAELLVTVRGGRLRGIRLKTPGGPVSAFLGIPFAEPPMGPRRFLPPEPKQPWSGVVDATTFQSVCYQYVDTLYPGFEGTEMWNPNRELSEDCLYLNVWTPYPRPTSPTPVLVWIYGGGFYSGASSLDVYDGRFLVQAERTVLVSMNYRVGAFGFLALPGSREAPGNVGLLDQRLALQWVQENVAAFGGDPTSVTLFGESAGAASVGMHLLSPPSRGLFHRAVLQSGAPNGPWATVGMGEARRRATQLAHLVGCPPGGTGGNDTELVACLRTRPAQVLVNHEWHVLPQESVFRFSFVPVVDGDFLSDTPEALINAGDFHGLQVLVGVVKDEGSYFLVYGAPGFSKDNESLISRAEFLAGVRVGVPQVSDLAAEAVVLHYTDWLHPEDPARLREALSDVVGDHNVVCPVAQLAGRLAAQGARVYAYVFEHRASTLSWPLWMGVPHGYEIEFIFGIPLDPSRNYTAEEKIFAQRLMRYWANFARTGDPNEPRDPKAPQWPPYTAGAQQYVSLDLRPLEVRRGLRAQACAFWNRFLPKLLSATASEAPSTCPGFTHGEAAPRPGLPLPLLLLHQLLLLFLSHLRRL
Method: (§1) Blood samples were obtained from healthy donors of Blood Donation Centre in Lodz and The Voievodal Specialised Hospital in Lodz. The preparation of erythrocytes for AChE activity measurements and plasma for the assessment of BuChE activity has been described previously.
(§2) The biological sample, consisting of a 400-fold diluted solution of haemolysed erythrocytes or 200-fold diluted plasma was incubated for 15 min (37 °C) with DTNB; the tested compound was then added in a volume of 10 µL. The enzymatic reaction was initiated by addition of a reaction substrate (ATC or BTC).

[2] = target: human plasma butyrylcholinesterase (BuChE) (Homo sapiens, UniProt P06276); experiment: biochemical
Sequence of human plasma butyrylcholinesterase (BuChE) (P06276 29-602): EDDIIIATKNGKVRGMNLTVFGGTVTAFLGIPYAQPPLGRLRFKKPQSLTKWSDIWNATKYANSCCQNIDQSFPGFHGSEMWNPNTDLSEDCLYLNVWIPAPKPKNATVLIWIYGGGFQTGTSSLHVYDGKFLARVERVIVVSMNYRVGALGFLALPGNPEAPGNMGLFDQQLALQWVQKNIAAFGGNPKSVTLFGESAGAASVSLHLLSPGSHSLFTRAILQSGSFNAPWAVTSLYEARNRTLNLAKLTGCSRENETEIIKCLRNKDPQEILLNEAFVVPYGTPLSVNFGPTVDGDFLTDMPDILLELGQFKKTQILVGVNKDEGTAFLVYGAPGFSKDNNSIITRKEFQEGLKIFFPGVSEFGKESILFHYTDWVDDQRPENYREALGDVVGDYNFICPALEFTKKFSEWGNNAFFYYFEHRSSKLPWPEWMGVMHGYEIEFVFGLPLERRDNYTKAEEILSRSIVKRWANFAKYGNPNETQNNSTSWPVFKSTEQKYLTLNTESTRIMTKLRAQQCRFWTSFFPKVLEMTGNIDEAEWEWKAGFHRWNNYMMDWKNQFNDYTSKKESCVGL
Method: as §1, §2

BuChE in human plasma = BuChE in human plasma (Homo sapiens, UniProt P06276)
Sequence of BuChE in human plasma (P06276 29-602): as above
Method: Due to the high level of variation in the individual concentration and activity of BuChE in human plasma, 32 biological samples were studied.
The kinetic parameters of enzymatic reactions were estimated using linear regression (Hanes-Woolf plots). The following parameters were calculated: the maximal velocity (Vmax) and the Michaelis constant (Km).
The kinetic parameters of BuChE reactions were obtained in a series of experiments using decreasing concentrations of BTC. The curves were analysed using the Hanes-Woolf equation, in which the ratio of the initial substrate concentration [S] to the reaction velocity v is plotted against [S].

SMILES | maximal inhibition of AChE ([1]; concentration range 0.01−100 µmol/L, vs control (100% of activity), listed as compound 2) | IC50 [1] | inhibition at 100 µM ([1]; read-out: maximal inhibitory effect against AChE) | IC50 [2] | type of BuChE inhibition (BuChE in human plasma; from Km and Vmax with and without inhibitor at IC50 concentration) | Vmax(i) (Vmax of the reactions with inhibitor) (BuChE in human plasma; inhibitor at IC50 concentration, substrate BTC, mean ± SD)
Cc1ncc(C)n2nc(-c3ccn4cc(-c5ccccc5)nc4n3)nc12 [CPL500036-02] | 34.87 ± 1.65% and ~34.87% | – | – | – | – | –
OCCOCCN1CCN(C2=Nc3ccccc3Sc3ccccc32)CC1 [Quetiapine] | – | > 100 µM | 8.82 ± 1.68% | 6.08 ± 1.64 µM | mixed inhibition | 0.137 ± 0.036 A/min
